Measured values taken from ChEMBL document CHEMBL6127040, “Discovery and optimization of isoliquiritigenin as a death-associated protein kinase 1 inhibitor” (Eur J Med Chem, 2024).

Columns and labels:
[1] = molecular target: Death-associated protein kinase 1 (Homo sapiens) (UniProt P53355)
Description: Binding affinity to DAPK1 (unknown origin) assessed as change in entropy by ITC analysis

[2] = molecular target: Death-associated protein kinase 1 (Homo sapiens) (UniProt P53355); remark: listed apart in the source
Description: Binding affinity to DAPK1 (unknown origin) assessed as change in Gibbs free energy by ITC analysis

[3] = molecular target: Death-associated protein kinase 1 (Homo sapiens) (UniProt P53355); remark: listed apart in the source
Description: Binding affinity to DAPK1 (unknown origin) assessed as change in enthalpy by ITC analysis

Sequence of Death-associated protein kinase 1 (Homo sapiens) (P53355 whole entry, looked up): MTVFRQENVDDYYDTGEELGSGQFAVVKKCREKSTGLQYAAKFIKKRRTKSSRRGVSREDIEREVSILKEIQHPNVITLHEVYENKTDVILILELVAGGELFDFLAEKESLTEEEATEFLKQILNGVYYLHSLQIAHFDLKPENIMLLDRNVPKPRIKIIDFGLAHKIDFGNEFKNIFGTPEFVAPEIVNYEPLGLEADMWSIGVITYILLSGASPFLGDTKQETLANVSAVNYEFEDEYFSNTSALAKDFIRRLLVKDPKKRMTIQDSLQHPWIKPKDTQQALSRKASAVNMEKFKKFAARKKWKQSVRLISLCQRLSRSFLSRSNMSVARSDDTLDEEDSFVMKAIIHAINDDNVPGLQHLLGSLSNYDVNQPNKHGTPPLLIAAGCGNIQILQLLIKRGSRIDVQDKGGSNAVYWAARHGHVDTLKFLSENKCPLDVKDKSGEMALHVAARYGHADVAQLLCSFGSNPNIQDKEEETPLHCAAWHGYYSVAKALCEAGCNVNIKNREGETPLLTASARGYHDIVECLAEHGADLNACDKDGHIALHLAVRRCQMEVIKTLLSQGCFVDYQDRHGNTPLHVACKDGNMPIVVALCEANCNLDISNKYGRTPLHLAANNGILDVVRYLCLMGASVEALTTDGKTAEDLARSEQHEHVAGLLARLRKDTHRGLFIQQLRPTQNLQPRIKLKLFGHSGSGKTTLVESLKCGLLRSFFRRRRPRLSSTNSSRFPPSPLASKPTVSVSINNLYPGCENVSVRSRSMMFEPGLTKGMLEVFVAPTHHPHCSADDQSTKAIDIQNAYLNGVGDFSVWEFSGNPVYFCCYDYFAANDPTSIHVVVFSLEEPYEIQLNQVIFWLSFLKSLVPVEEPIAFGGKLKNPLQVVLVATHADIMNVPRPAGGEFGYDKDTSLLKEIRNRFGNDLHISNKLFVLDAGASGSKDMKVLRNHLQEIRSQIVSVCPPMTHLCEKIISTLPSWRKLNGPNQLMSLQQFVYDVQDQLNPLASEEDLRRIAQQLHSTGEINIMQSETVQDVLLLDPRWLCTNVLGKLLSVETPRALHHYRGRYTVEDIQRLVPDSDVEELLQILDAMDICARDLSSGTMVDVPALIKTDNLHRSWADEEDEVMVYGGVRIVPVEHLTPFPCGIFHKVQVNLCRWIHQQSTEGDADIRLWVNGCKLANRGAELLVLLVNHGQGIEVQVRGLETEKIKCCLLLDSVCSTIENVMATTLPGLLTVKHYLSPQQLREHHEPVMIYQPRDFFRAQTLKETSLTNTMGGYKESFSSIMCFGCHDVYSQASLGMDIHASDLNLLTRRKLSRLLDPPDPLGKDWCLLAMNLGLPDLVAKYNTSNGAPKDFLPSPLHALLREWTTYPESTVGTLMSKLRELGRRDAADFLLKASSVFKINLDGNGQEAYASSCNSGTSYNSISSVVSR

Compound `O=C(/C=C/c1ccc(O)cc1)c1ccc(O)cc1O` has a -TdeltaS [1] of 1.9 kcal/mol, a deltaG [2] of -7.66 kcal/mol and a deltaH [3] of -9.55 kcal/mol.
